Test [1] addresses T1, proteins captured on kinobeads from Jurkat cell lysate (Homo sapiens, UniProt P54619).
T1 construct: endogenous in cells; host or cells: Jurkat clone E6-1 lysate
Description: In-lysate competition binding with kinobeads, Jurkat lysate, iTRAQ MS, relative intensity of identified proteins (Table 22). The note with it: DMSO control = 1.0. The protocol: (§1) This example illustrates competition binding in cell lysates (see particularly the third aspect of the invention). A test compound, Bisindolylmaleimide VIII (Bis VIII, a well known kinase inhibitor; Davies et al., 2000. Specificity and mechanism of action of some commonly used protein kinase inhibitors. Biochemical Journal 351 (Pt 1): 95-105) was added to a cell lysate thereby allowing the test compound to bind to the target proteins in the lysate. Then the lysate was contacted with the kinobeads affinity matrix to capture remaining free target proteins. The proteins bound to the kinobeads matrix were then eluted with detergent-containing buffer, separated on a SDS-polyacryamide gel and analyzed by immunodetection (Western blots) or mass spectrometry detection.
(§2) For the quantitative detection of proteins by mass spectrometry proteins were eluted from the affinity matrix and subsequently separated by SDS-Polyacrylamide gel elecrophoresis. Suitable gel areas were cut out and subjected to in-gel proteolytic digestion with trypsin.
(§3) Four tryptic digest samples (corresponding to three different Bis VIII concentrations in the lysate and one DMSO control) were labeled with ITRAQ reagents and the combined samples were analyzed in a single LC-MS/MS mass spectrometry analysis followed by peak quantification in the MS/MS spectrum (Ross et al., 2004. Multiplexed protein quantitation in Saccharomyces cerevisiae using amine-reactive isobaric tagging reagents. Mol. Cell. Proteomics 3(12): 1154-1169). […] Binding curves for individual kinases are shown (FIG. 5). The relative intensity 50 (RI50) values representing the affinity of kinase-compound pairs are similar to IC50 values reported by kinase enzyme assays (Davies et al., 2000. Specificity and mechanism of action of some commonly used protein kinase inhibitors. Biochemical Journal 351 (Pt 1): 95-105).
(§4) Aliqots of Jurkat lysate (10 mg protein) were incubated with different Bis VIII concentrations for one hour at 4° C. (0.025 μM, 0.074 μM, 0.22 μM, 0.67 μM, 2.0 μM and 6.0 μM final concentration of Bis VIII). To this end Bis VIII solutions were prepared in 100% DMSO as solvent that corresponded to 200 fold desired final Bis VIII concentration (Bis VIII from Alexis Biochemicals cat. number ALX 270-056). Five μl of these solutions were added to 1 ml of lysate resulting in the indicated final concentrations. For a control experiment 5 μl of DMSO without Bis VIII were used.
(§5) To each preincubated lysate sample 40 μl of kinobeads (see example 1) were added and incubated for one hour at 4° C. During the incubation the tubes were rotated on an end-over-end shaker (Roto Shake Genie, Scientific Industries Inc.). Beads were collected by centrifugation, transfered to Mobicol-columns (MoBiTech 10055) and washed with 10 ml 1×DP buffer containing 0.4% NP40 detergent, followed by a wash with 5 ml 1×DP buffer with 0.2% NP40. To elute the bound proteins, 100 μl 2×SDS sample buffer was added, the column was heated for 30 minutes at 50° C. and the eluate was transferred to a microfuge tube by centrifugation. Proteins were then separated by SDS-Polyacrylamide electrophoresis (SDS-PAGE). The composition and preparation of buffers is described in example 2.
(§6) The peptide extracts of samples treated with different concentrations of the test compound (0.074 μM, 0.22 μM and 0.67 μM Bis VIII) and the solvent control (0.5% DMSO) were treated with different isomers of the isobaric tagging reagent (iTRAQ Reagents Multiplex Kit, part number 4352135, Applied Biosystems, Foster City, Calif., USA). The iTRAQ reagents are a set of multiplexed, amine-specific, stable isotope reagents that can label all peptides in up to four different biological samples enabling simultaneous identification and quantitation of peptides. The iTRAQ reagents were used according to instructions provided by the manufacturer. […]

The target in test [2] is T2, proteins captured on kinobeads from Jurkat cell lysate (Homo sapiens, UniProt Q13131).
T2 construct: endogenous in cells; host or cells: Jurkat clone E6-1 lysate
T2 sequence (Q13131 whole entry): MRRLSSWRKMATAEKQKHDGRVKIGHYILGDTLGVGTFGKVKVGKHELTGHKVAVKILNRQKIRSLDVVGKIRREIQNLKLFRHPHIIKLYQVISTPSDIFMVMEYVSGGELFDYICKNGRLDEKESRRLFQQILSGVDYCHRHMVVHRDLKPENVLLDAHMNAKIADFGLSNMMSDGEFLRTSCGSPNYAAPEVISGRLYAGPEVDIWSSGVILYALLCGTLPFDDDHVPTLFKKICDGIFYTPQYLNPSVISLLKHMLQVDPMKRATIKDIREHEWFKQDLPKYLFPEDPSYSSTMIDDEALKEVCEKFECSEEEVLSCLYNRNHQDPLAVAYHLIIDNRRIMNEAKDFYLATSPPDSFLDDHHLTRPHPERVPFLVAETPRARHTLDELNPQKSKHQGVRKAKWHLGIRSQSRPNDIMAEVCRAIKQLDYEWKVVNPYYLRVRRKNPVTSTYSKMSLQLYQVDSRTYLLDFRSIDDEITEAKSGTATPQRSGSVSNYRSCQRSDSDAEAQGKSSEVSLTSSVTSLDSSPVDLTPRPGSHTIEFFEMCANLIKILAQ
Described as above. The conditions noted are these: DMSO control = 1.0. As to the method:
as §1, §2, §3, §4, §5, §6

In test [3] the target is T3, proteins captured on kinobeads from Jurkat cell lysate (Homo sapiens, UniProt Q9H0K1).
T3 construct: endogenous in cells; host or cells: Jurkat clone E6-1 lysate
T3 sequence (Q9H0K1 whole entry): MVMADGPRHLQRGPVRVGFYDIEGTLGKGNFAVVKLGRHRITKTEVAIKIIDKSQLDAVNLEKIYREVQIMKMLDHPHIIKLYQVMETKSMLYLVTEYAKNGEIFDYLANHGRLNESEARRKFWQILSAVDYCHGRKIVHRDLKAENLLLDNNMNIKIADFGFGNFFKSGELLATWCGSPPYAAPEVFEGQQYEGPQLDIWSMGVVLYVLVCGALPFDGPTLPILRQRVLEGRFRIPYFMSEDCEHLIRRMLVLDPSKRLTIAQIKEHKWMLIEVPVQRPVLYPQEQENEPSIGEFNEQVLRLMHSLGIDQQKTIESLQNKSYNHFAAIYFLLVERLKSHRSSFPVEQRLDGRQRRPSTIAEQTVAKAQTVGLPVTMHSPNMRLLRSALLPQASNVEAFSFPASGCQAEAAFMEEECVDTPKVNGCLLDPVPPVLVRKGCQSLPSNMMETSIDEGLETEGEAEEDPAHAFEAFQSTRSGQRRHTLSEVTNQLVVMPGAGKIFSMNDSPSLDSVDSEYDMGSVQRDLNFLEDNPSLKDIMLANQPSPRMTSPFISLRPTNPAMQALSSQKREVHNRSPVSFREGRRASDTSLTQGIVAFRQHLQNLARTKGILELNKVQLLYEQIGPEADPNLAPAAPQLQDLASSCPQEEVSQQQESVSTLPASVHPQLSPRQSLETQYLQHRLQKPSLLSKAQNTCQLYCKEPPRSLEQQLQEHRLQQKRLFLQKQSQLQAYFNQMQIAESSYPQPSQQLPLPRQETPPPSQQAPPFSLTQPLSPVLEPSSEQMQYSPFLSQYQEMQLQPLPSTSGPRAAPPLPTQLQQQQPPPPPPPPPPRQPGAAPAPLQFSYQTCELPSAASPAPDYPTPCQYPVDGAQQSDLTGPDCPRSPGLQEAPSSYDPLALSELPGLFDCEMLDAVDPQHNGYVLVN
The description is as above. The note with it: DMSO control = 1.0. As to the method:
as §1, §2, §3, §4, §5, §6

Test [4] deals with T4, proteins captured on kinobeads from Jurkat cell lysate (Homo sapiens, UniProt Q9Y478).
T4 construct: endogenous in cells; host or cells: Jurkat clone E6-1 lysate
T4 sequence (Q9Y478 whole entry): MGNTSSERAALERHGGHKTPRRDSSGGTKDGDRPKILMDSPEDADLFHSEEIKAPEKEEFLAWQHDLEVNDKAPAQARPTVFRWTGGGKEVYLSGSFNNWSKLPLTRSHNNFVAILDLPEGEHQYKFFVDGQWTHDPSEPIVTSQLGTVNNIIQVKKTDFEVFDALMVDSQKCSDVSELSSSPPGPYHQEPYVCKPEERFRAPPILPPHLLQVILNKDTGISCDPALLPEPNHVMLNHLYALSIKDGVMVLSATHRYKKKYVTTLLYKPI
The test is described as above. The conditions noted are these: DMSO control = 1.0. The protocol: as §1, §2, §3, §4, §5, §6

Another test concerns the target T5, PKCg (Mus musculus, UniProt P63318).
T5 construct: from tissue; host or cells: mouse brain
Description: Kinobeads elution with test compound, mouse brain lysate, MS. Format: binding. The conditions noted are these: kinase released from kinobeads by specific elution. A digest of the protocol: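 Kinobeads preloaded with mouse brain lysate under near-physiological buffer conditions were washed gently, then eluted for 30 min at 4° C with elution buffer holding 1.0 mM test compound; DMSO or DMF (2%) buffer served as control. Released proteins were reduced, alkylated, gel-separated and identified by mass spectrometry.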

From patent publication US20090238808A1, “Process for the identification of novel enzyme interacting compounds” (priority 2005, published 2009) come the findings set out here.

T1 sequence (P54619 whole entry): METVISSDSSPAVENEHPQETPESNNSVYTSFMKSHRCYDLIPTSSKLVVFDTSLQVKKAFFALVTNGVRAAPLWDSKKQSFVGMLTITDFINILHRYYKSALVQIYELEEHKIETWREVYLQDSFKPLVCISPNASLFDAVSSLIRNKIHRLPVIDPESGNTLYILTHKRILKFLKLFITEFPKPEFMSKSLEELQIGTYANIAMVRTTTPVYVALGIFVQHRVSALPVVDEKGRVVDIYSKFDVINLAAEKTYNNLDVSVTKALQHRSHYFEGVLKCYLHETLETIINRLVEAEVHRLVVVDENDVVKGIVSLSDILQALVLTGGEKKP

As for `Cn1cc(C2=C(c3cn(CCCN)c4ccccc34)C(=O)NC2=O)c2ccccc21` [Bis VIII, Bisindolylmaleimide VIII], the “Relative Intensity, PRKAG1” value in test [1] (0.074 uM in lysate) is recorded as 0.78; in test [1] (0.67 uM in lysate) it was 0.68. Moreover, the “Relative Intensity, AMPKa1 (PRKAA1)” value in test [2] (0.074 uM in lysate) was determined as 0.88; in test [2] (0.67 uM in lysate) it was 0.91. Also, the “Relative Intensity, QIK (SNF1LK2)” value in test [3] (0.074 uM in lysate) is 0.93; in test [3] (0.67 uM in lysate), 0.98. The “Relative Intensity, PRKAB1” value in test [4] (0.074 uM in lysate) was found to be 0.91; in test [4] (0.67 uM in lysate) it was 0.79.

As for `CNC1CC2OC(C)(C1OC)n1c3ccccc3c3c4c(c5c6ccccc6n2c5c31)C(=O)NC4` (stereo not shown) [CZC9280], on PKCg, the “mass spectrometry score, PKCg” value was 53 and the “number of identified peptides, PKCg” value is recorded as 1.
